Each structure is given as a SMILES string.

Consider two compounds from US20040167217A1, “Neuroprotective effects of polyphenolic compounds” (priority 2003, published 2004).

Series [1] has as its system cerebellar granule cells. Nature of the series: Oligonucleosome formation (cell death detection ELISA), serum deprivation. It counts as cell-based, rat. Particulars: for apoptosis (oligonucleosome formation) induced by the absence of FCS: curcumin 1, 5, 10, 25 and 50 μM. As to the method: Primary cultures of cortical neurons and cerebellar granule cells were prepared. In brief, cortical neurons were prepared from fetal brain from 17-day pregnant rat and cerebellar granule cells from 8-day old rats. Brain tissues were dissociated through trypsinization in 0.025% trypsin solution and trituration. Dissociated cells were collected through centrifugation and resuspended in standard medium containing: basal Eagle's medium containing 10% fetal bovine serum (FCS), 2 mM glutamine, genatmycin 0.05 mg/ml, and 25 mM KCI. Cells were plated at a density of 1.8×10^6 onto 35-mm dishes coated with 10 micrograms/ml ply-L-lysine.
To induce programmed cell death in […] granule cells, two different experimental well-established paradigms: serum deprivation and low K^+, were performed. In particular, neurons were cultured after their plating in serum free medium containing 25 mM KCI or in standard medium for 6 days and then agitating them in a medium containing 10% FCS and 5 mM KCI. In both of these paradigms, control cells were grown in medium containing 10% FCS and 25 mM KCI.
To induce apoptosis in cortical neurons, β-amyloid peptide (1-40), a molecule related to the pathogenesis of Alzheimer disease and a well known inducer of apoptosis was added.

In series [2] the test system is heme oxygenase. Description: Heme oxygenase activity assay in astrocytes. It counts as cell-based. Here is the method:
Type 1 astrocytes (DI TNC1) were purchased from the American Type Culture Collection (Manassas, VA) and cultured in Dulbecco's modified Eagle's medium containing 4.5 g/l glucose, 2 mM glutamine, 100 units/ ml penicillin, and 0.1 mg/ml streptomycin and supplemented with 10% fetal bovine serum. Cells were grown in 75-cm^2 flasks and maintained at 37° C. in a humidified atmosphere of air and 5% CO2. Confluent cells were exposed to various concentrations of curcumin, CAPE, or Curcumin-95. After each treatment (6 or 24 h), cells were harvested for the determination of heme oxygenase activity, HO-1 protein expression, and intracellular glutathione. Astrocytes growing in 24 wells were exposed to polyphenolic compounds, and cell viability was determined at 24 h. Heme oxygenase activity was determined at the end of each treatment as described previously by Foresti, et al.^18 and Motterlini, et al.^19 Briefly, microsomes from harvested cells were added to a reaction mixture containing NADPH, glucose-6-phosphate dehydrogenase, rat liver cytosol as a source of biliverdin reductase, and the substrate hemin. The reaction mixture was incubated in the dark at 37° C. for 1 h and was terminated by the addition of 1 ml of chloroform. After vigorous vortex and centrifugation, the extracted bilirubin in the chloroform layer was measured by the difference in absorbance between 464 and 530 nm (ε=40 mM^−1cm^−1).

The test system of series [3] is Type 1 astrocytes (DI TNC1). Description: Cell viability of astrocytes, Alamar Blue. Particulars: 24 h; for cytotoxic action in the presence of NAC: 1 mM NAC, curcumin 100 μM, CAPE 50 μM and 100 μM; for cell viability and cell morphology: concentration not exceeding 30 μM. It counts as cell-based. As to the method: Type 1 astrocytes (DI TNC1) were purchased from the American Type Culture Collection (Manassas, VA) and cultured in Dulbecco's modified Eagle's medium containing 4.5 g/l glucose, 2 mM glutamine, 100 units/ ml penicillin, and 0.1 mg/ml streptomycin and supplemented with 10% fetal bovine serum. Cells were grown in 75-cm^2 flasks and maintained at 37° C. in a humidified atmosphere of air and 5% CO2. Confluent cells were exposed to various concentrations of curcumin, CAPE, or Curcumin-95. After each treatment (6 or 24 h), cells were harvested for the determination of heme oxygenase activity, HO-1 protein expression, and intracellular glutathione. Astrocytes growing in 24 wells were exposed to polyphenolic compounds, and cell viability was determined at 24 h. Astrocytes were exposed to curcumin or CAPE for the indicated times, and cell viability was assessed with the use of an Alamar Blue assay according to manufacturer's instructions (Serotec; Oxford, UK) as reported previously^11. At the end of each treatment, cells were washed twice and incubated for an additional 5 h in complete medium containing 1% Alamar Blue solution. Optical density in each sample was measured using a plate reader (Molecular Devices; Crawley, UK). The intensity of the color developed in the medium is proportional to the viability of cells, which is calculated as the difference in absorbance between 570 and 600 nm and expressed as percentage of control.
(The colour change of resazurin is a common sign of viable cells or microbes.)

For series [4], the system named is Type 1 astrocytes (DI TNC1). Description: Intracellular glutathione (GSH, GSSG) in astrocytes. The series is classed as cell-based.
Description: Type 1 astrocytes (DI TNC1) were purchased from the American Type Culture Collection (Manassas, VA) and cultured in Dulbecco's modified Eagle's medium containing 4.5 g/l glucose, 2 mM glutamine, 100 units/ ml penicillin, and 0.1 mg/ml streptomycin and supplemented with 10% fetal bovine serum. Cells were grown in 75-cm^2 flasks and maintained at 37° C. in a humidified atmosphere of air and 5% CO2. Confluent cells were exposed to various concentrations of curcumin, CAPE, or Curcumin-95. After each treatment (6 or 24 h), cells were harvested for the determination of heme oxygenase activity, HO-1 protein expression, and intracellular glutathione. […] GSH and GSSG levels were measured after 6- and 24- h exposure of astrocytes to curcumin and CAPE using a method previously described^19,20. Briefly, cells harvested in cold PBS were freeze-thawed three times, and an aliquot of this suspension was added to a buffer solution containing 12 mM EDTA and 10 mM 5,5′-dithiobis-(2-nitrobenzoic acid). Total glutathione was measured spectrophotometrically (optical density=412nm) using the glutathione reductase-recycling assay. To determine the amount of GSSG, an aliquot of the cell suspension was added to an equal volume of buffer containing EDTA and N-ethylmaleimide (10 mM). The sample was mixed and centrifuged, and the supernatant was passed through a C18 Sep-Pak cartridge (Waters, Milford, Mass.) to remove the excess N-ethylmaleimide. The sample was added to a cuvette containing 5,5′-dithiobis-(2-nitrobenzoic acid) and glutathione reductase, and the assay was performed as for the measurement of total glutathione. Intracellular glutathione was determined by comparison with a standard curve obtained with GSH and GSSG solutions and was expressed as nmoles/mg of protein.
Where [5] appears, read: high concentrations (50 and 100 μM).

With `O=C(/C=C/c1ccc(O)c(O)c1)OCCc1ccccc1` [CAPE, Caffeic acid phenethyl ester], the “concentration with strongest / most effective anti-apoptotic effect” value in series [1] worked out at 25 µM. Further, the “apoptosis (oligonucleosome formation) induced by the absence of FCS” value in series [1] is “strong dose-dependent anti-apoptotic effect”. In addition, in series [2], the “concentration of maximal enzyme activation” value came out at 30 µM. Besides, in series [2] (100 μM), the “enzyme activation and protein expression at 100 μM compared with 30 μM” value is listed as “significantly less effective”. Also, the heme oxygenase activity entry is reported as “unable to stimulate an increase in heme oxygenase activity” in series [2] (setting [5]) and “substantial increase” in series [2] (low concentrations 15-50 μM). Further, the results for the “reduction in cell viability” value in series [3] (50 μM) and in series [3] (100 μM) were 61% and 78%, respectively. In series [3], the “cytotoxic action in the presence of NAC” value was “significantly attenuated the cytotoxic action”. Besides, in series [3], the “cell viability and cell morphology” value was “fully preserved”. The “intracellular GSH” value in series [4] (6 h, 50 μM) was “did not affect GSH”; in series [4] (6 h, 15 and 30 μM) it was “elevation of GSH”; in series [4] (24 h, 50 μM) it was “significant depletion of GSH”; in series [4] (24 h, 15 and 30 μM), “marked reduction”. In series [4] (24 h, 50 μM), the “intracellular GSSG” value is listed as “concomitant elevation in GSSG”.
As for `COc1cc(C=CC(=O)CC(=O)C=Cc2ccc(O)c(OC)c2)ccc1O` [curcumin, 1,7-bis[4-Hydroxy-3-methoxyphenyl]-1,6-heptadiene-3,5-dione], in series [1], the “concentration with strongest / most effective anti-apoptotic effect” value was 25 µM. The “apoptosis (oligonucleosome formation) induced by the absence of FCS” value in series [1] was “significantly reduced apoptosis”. Moreover, the “increase in heme oxygenase activity” value in series [2] (6 h, 15 μM) stood at 7.4 fold; in series [2] (6 h, 30 μM) it was 9.1 fold. The heme oxygenase activity in series [2] (6 h, 30 μM (control 247±5)) is reported as 2461±194 pmol of bilirubin/mg of protein/h; in series [2] (6 h, 30 μM plus 1 mM NAC) it was 2392±22 pmol of bilirubin/mg of protein/h; in series [2] (6 h, 50 μM, absence of NAC), 492±30 pmol of bilirubin/mg of protein/h; in series [2] (6 h, 50 μM, presence of 1 mM NAC), 752±78 pmol of bilirubin/mg of protein/h; in series [2] (setting [5]), “unable to stimulate an increase in heme oxygenase activity”. For the same compound, in series [2] (6 h, 15 and 30 μM, 1 mM NAC), the “effect of NAC on the increase in heme oxygenase activity” value was “not significantly affected by the presence of NAC”. In series [2] (higher concentrations (50-100 μM)), the “elevation in heme oxygenase activity” value came out at 1.9 fold. Besides, the “reduction in cell viability” value in series [3] (50 μM) was 20%; in series [3] (100 μM), 63%. In addition, in series [3], the “cytotoxic action in the presence of NAC” value is given as “significantly attenuated the cytotoxic action”. Further, the “cell viability and cell morphology” value in series [3] is on record as “fully preserved”. Also, in series [4] (6 h, 50 μM), the “glutathione oxidation (GSSG)” value is given as “caused oxidation”. For the same compound, the “intracellular GSH” value in series [4] (6 h, 50 μM) is reported as “without affecting the GSH content”; in series [4] (6 h, 15 and 30 μM) it was “significant increase”; in series [4] (24 h, 15, 30, and 50 μM), “concentration-dependent decrease in GSH”. Moreover, the “intracellular GSSG” value in series [4] (6 h, 15 and 30 μM) was “significant increase”; in series [4] (24 h, 15, 30, and 50 μM), “gradual and substantial increase in GSSG levels”.
